The text below walks through data of paper PMC10746543, “Design principles for cyclin K molecular glue degraders” (Nature Chemical Biology, 2023).

The test system of test [1] is HEK293T cells. Nature of the test: Drug sensitivity assay (CellTiter-Glo viability) with or without MLN4924 pretreatment. The test is classed as cell-based, human. Particulars: Supplementary Table 2; for EC50: Homo sapiens, HEK-293T, HEK293T viability, 72 h, compound alone, read-out: Cellular assays EC50; for Toxicity rescue: MLN4924-mediated cytotoxicity rescue, 10 µM used where n.d. The procedure:
HEK293T–Cas9 cells were resuspended at 0.15 × 10^6 ml^−1 treated with DMSO or 100 nM MLN4924 and plated on 384-well plates. After 2 h, the indicated drugs were dispensed with a D300 digital dispenser (Tecan). After 3 days of drug exposure, cell viability was assessed using the CellTiter-Glo luminescent assay (Promega, G7572) on an CLARIOstar Plus, MARS 3.4 (BMG LabTech). Cell viabilities were calculated relative to DMSO controls.
For orientation: ATP-based viability assays read luminescence as a measure of living cells.

For test [2], the system named is cyclin K–eGFP degradation reporter. Nature of the test: Cyclin K reporter stability analysis (dual-color cyclin K–eGFP reporter). Format: cell-based, human. Particulars: Supplementary Table 2; HEK293T cycK-eGFP reporter, 5 h; read-out: Cellular assays DC50. The procedure:
HEK293T–Cas9 cells expressing the cyclin K–eGFP degradation reporter were resuspended at 1 × 10^6 ml^−1 and 50 µl of cell suspension was seeded in non-cell-culture-treated 384-well plates. Shortly after, cells were treated with drug or DMSO for 5 h. […] The fluorescent signal was quantified by flow cytometry (LSRFortessa flow cytometer, BD Biosciences). Using FlowJo (flow cytometry analysis software, BD Biosciences), the geometric mean of the eGFP and mCherry fluorescent signal for round and mCherry-positive cells was calculated. The ratio of eGFP to mCherry was normalized to the average of three DMSO-treated controls.

Test [3] has as its target T1, CDK12–cyclin K and DDB1 (Homo sapiens, UniProt Q16531+Q9NYV4, K965R).
T1 construct: His6–CDK12 (a.a. 713–1,052); full-length or beta-propeller B domain deletion (ΔBPB: a.a. 396–705 deleted) constructs of His6–DDB1ΔBPB, StrepII–Avi–DDB1, or His6–Spy–DDB1; made in house; host or cells: Trichoplusia ni High Five insect cells (baculovirus)
Nature of the test: TR-FRET ternary complex formation assay (compound titration). The test is classed as binding. The text has this:
A 70 μs delay was employed to reduce background fluorescence. The TR-FRET signal was obtained through calculating the ratio of 520 nm to 490 nm fluorescence, and Prism 9 (GraphPad) was used for further data analysis.

The target of test [4] is T2, CDK9–cyclin T (Homo sapiens, UniProt P50750).
T2 construct: purchased Thermo Fisher
Nature of the test: Lanthascreen kinase binding assay, CDK9. Particulars: for Lanthascreen TR-FRET signal (raw ratio), sheet CDK9: first titration set (r1), duplicates. How it is done:
(§1) Lanthascreen experiments were performed using commercially available reagents (Thermo Fisher) and according to the manufacturer’s instructions.
(Time-resolved FRET reads energy transfer from a long-lived donor to a nearby acceptor.)

Test [5] deals with CDK12–cyclin K (Homo sapiens, UniProt Q9NYV4). Nature of the test: Lanthascreen kinase binding assay, CDK12. Particulars: for Lanthascreen raw signal, sheet CDK12: series r1, duplicates. The procedure:
as §1

Test [6] deals with T3, CDK2–cyclin A (Homo sapiens, UniProt P24941).
T3 construct: purchased Thermo Fisher
Nature of the test: Lanthascreen kinase binding assay, CDK2. Particulars: for Lanthascreen signal, sheet CDK2: raw replicates, experiment r1-r11. How it is done:
as §1

Structures are written as SMILES. Several values for one entry are separate records, joined by “and”; a condition that tells them apart may be missing. Identical values can stand only once. Like-named read-outs stand apart in the source and are kept apart here. Some results are limits rather than exact numbers.

Chain of CDK12–cyclin K (Q9NYV4 713-1052): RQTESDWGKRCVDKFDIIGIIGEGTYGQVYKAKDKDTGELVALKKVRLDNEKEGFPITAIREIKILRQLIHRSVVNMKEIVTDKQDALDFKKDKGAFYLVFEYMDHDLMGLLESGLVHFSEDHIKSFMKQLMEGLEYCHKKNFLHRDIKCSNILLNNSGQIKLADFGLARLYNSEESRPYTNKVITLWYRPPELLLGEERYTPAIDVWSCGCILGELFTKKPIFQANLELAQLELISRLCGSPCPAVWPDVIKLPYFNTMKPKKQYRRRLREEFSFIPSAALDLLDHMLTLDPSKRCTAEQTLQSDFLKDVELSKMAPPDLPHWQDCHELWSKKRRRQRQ
Chain of CDK12–cyclin K (O75909 1-267 partner limits assumed): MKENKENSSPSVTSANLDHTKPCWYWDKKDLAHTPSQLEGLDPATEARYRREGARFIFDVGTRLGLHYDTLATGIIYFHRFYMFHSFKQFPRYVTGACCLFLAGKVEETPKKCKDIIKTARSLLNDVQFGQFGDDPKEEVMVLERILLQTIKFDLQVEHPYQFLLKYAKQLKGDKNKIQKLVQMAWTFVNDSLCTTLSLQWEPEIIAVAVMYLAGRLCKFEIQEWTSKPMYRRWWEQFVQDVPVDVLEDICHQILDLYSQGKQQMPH
T2 sequence (P50750 whole entry): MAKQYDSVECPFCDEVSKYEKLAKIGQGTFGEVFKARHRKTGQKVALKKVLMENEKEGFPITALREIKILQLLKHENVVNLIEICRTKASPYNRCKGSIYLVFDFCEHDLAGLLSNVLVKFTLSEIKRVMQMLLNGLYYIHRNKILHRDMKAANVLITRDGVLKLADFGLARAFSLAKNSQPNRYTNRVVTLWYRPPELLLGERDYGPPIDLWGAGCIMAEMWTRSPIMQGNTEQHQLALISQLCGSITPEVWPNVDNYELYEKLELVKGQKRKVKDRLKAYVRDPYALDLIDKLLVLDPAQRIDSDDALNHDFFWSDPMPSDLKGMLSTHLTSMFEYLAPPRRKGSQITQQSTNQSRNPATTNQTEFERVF
T2 sequence (O60563 whole entry partner): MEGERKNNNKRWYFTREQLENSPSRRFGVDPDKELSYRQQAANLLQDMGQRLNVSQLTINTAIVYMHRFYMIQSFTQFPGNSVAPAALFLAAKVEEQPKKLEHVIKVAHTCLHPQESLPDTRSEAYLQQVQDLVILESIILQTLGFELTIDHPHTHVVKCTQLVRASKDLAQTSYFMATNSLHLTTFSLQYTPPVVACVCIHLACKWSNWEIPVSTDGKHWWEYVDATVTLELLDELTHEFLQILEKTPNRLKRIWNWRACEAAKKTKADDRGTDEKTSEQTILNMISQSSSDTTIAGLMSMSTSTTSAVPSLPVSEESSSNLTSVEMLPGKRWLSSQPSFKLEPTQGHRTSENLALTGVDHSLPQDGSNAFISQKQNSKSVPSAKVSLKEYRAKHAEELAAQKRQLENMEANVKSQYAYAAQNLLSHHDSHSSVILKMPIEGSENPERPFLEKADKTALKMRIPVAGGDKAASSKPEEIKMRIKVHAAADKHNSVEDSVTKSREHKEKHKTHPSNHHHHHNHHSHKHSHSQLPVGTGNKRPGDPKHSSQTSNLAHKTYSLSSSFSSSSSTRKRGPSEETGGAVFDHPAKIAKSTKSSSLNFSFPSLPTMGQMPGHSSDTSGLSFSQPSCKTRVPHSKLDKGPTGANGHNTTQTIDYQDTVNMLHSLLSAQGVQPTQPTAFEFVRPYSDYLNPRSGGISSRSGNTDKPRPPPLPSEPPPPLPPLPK
T1 sequence (Q9NYV4 713-1052 K965R): as the sequence (Q9NYV4 713-1052) above, with K253R counted along it
T1 sequence (O75909 1-267 partner): as the sequence (O75909 1-267 partner limits assumed) above
T1 sequence (Q16531 whole entry): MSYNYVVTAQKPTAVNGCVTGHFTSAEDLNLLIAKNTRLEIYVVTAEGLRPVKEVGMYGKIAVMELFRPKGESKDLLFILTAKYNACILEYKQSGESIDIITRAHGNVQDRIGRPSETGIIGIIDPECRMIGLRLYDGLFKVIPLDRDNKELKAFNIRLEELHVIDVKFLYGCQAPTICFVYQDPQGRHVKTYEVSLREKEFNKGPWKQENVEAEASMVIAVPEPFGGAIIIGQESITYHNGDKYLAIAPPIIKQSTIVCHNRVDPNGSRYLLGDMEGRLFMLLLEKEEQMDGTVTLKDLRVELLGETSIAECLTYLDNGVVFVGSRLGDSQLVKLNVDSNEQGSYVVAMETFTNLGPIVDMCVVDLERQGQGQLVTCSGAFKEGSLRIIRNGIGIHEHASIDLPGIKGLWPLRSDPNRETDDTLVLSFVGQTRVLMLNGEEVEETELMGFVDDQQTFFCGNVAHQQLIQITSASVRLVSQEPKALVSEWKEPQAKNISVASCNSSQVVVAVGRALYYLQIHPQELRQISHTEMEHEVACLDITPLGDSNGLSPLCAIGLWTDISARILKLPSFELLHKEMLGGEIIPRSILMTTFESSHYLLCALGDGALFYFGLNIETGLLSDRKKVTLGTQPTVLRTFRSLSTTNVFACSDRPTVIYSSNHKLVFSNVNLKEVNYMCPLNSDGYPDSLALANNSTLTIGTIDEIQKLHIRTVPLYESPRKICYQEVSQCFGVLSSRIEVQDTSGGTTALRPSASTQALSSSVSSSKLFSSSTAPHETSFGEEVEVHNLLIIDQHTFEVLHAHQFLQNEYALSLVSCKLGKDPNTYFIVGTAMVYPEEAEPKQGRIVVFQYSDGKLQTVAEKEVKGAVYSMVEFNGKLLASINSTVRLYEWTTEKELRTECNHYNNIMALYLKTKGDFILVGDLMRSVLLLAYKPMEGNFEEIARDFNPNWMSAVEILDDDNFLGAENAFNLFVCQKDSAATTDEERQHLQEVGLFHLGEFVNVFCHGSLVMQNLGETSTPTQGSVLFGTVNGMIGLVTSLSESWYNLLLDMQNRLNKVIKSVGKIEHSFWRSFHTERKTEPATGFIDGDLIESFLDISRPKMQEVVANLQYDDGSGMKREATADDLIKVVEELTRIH

Broadly, the EC50 is the concentration giving half of the maximal effect. Usually DC50 stands for the concentration at which degradation of the target reaches its halfway point. For `CC(C)(C)c1cnc(CSc2cnc(NC(=O)C3CCN(CC(=O)NCCOCCOCCOCCNc4cccc5c4C(=O)N(C4CCC(=O)NC4=O)C5=O)CC3)s2)o1` (centres unmarked) [THAL-SNS032], in test [1], the 50% effective concentration (EC50) is 192 nM and the Toxicity rescue was 267%. For the same compound, the 50% degradation concentration (DC50) in test [2] was below 50 nM.

Turning to `CCc1ccc2nc(Nc3cc(Cc4ccccc4)nc(N[C@H]4CC[C@H](O)CC4)n3)sc2c1` [GSK2250665A, reference compound], the “TR-FRET signal at compound concentration 4.68 nM” value in test [3] (compound concentration 4.68 nM, raw replicate titration data) is 0.2092 and 0.2185. In addition, the “TR-FRET signal at compound concentration 21.6 nM” value in test [3] (compound concentration 21.6 nM, raw replicate titration data) is 0.2003 and 0.2155. The “TR-FRET signal at compound concentration 36 nM” value in test [3] (compound concentration 36 nM, raw replicate titration data) was 0.2049 and 0.2158. The “TR-FRET signal at compound concentration 79.2001 nM” value in test [3] (compound concentration 79.2001 nM, raw replicate titration data) is 0.208 and 0.2231. The “TR-FRET signal at compound concentration 158.4 nM” value in test [3] (compound concentration 158.4 nM, raw replicate titration data) was 0.2009 and 0.2135. Further, the “TR-FRET signal at compound concentration 309.6 nM” value in test [3] (compound concentration 309.6 nM, raw replicate titration data) is 0.2037 and 0.2058. Moreover, the “TR-FRET signal at compound concentration 626.401 nM” value in test [3] (compound concentration 626.401 nM, raw replicate titration data) is 0.2061 and 0.2177. Also, in test [3] (compound concentration 1252.8 nM, raw replicate titration data), the “TR-FRET signal at compound concentration 1252.8 nM” value was 0.2168 and 0.2226. In addition, the “TR-FRET signal at compound concentration 2448 nM” value in test [3] (compound concentration 2448 nM, raw replicate titration data) is 0.212 and 0.232. For the same compound, in test [3] (compound concentration 9936.01 nM, raw replicate titration data), the “TR-FRET signal at compound concentration 9936.01 nM” value is 0.2386 and 0.258. Further, in test [3] (compound concentration 20016 nM, raw replicate titration data), the “TR-FRET signal at compound concentration 20016 nM” value was 0.2819 and 0.2859. For the same compound, in test [2], the 50% degradation concentration (DC50) was above 10000 nM.

Usually IC50 stands for the concentration at which inhibition is half-maximal. Take `CC(C)n1cnc2c(NCc3ccc(-c4ccccn4)cc3)nc(N3CCCC[C@H]3CCO)nc21` [DS70]: the IC50 in test [4] (Supplementary Table 2, read-out: Lanthascreen IC50 [nM] CDK9) stood at 5 nM; in test [5] (Supplementary Table 2, read-out: Lanthascreen IC50 [nM] CDK12), 1 nM; in test [6] (Supplementary Table 2, read-out: Lanthascreen IC50 [nM] CDK2), 31 nM. Also, the “Lanthascreen TR-FRET signal (raw ratio), sheet CDK9” value in test [4] (compound 1.02544 nM) is 0.01641 and 0.01302; in test [4] (compound 3.15521 nM), 0.01102 and 0.01312; in test [4] (compound 9.46563 nM) it was 0.008363 and 0.009049; in test [4] (compound 31.5521 nM), 0.005358 and 0.007058; in test [4] (compound 99.3891 nM), 0.003738 and 0.004042; in test [4] (compound 315.521 nM), 0.003575 and 0.004296. For the same compound, the “Lanthascreen TR-FRET signal (raw ratio), sheet CDK9” value in test [4] (compound 10002 nM) is 0.002963 and 0.00293. Besides, the half-maximal effective concentration (EC50) came out at 17.6 nM in test [3] (Supplementary Table 2, read-out: TR-FRET EC50 TR-FRET); 18 ± 1 nM in test [3] (in vitro complex formation, 50 nM CDK12–cyclin K, 100 nM DDB1, text and figures, read-out: TR-FRET EC50); 265 nM in test [1]. In addition, the “TR-FRET signal at compound concentration 0.468 nM” value in test [3] (raw replicate titration data) was 0.3438 and 0.3184 and 0.1924 and 0.2024; in test [3] (raw titration data), 0.3438 and 0.3184 and 0.1924 and 0.2024. Besides, the “TR-FRET signal at compound concentration 2.16 nM” value was 0.4192 and 0.3926 and 0.2807 and 0.3027 in test [3] (raw replicate titration data); 0.4192 and 0.3926 and 0.2807 and 0.3027 in test [3] (raw titration data). Besides, the “TR-FRET signal at compound concentration 3.6 nM” value in test [3] (raw replicate titration data) was 0.579 and 0.5213 and 0.4737 and 0.5178; in test [3] (raw titration data), 0.579 and 0.5213 and 0.4737 and 0.5178. In addition, the “TR-FRET signal at compound concentration 7.92001 nM” value is 0.9688 and 0.8489 and 0.8819 and 0.9925 in test [3] (raw replicate titration data); 0.9688 and 0.8489 and 0.8819 and 0.9925 in test [3] (raw titration data). In addition, the “TR-FRET signal at compound concentration 15.84 nM” value in test [3] (raw replicate titration data) is 1.662 and 1.49 and 2.462 and 1.9374; in test [3] (raw titration data), 1.662 and 1.49 and 2.462 and 1.9374. The “TR-FRET signal at compound concentration 30.96 nM” value in test [3] (raw replicate titration data) was 3.334 and 2.673 and 3.406 and 3.32; in test [3] (raw titration data), 3.334 and 2.673 and 3.406 and 3.32. Moreover, the “TR-FRET signal at compound concentration 62.6401 nM” value in test [3] (raw replicate titration data) was 4.043 and 3.673 and 3.819 and 3.799; in test [3] (raw titration data), 4.043 and 3.673 and 3.819 and 3.799. For the same compound, the “TR-FRET signal at compound concentration 125.28 nM” value in test [3] (raw replicate titration data) is 4.112 and 3.943 and 3.866 and 3.944; in test [3] (raw titration data) it was 4.112 and 3.943 and 3.866 and 3.944. In addition, the “TR-FRET signal at compound concentration 244.8 nM” value in test [3] (raw replicate titration data) was 4.2103 and 4.005 and 3.909 and 3.827; in test [3] (raw titration data), 4.2103 and 4.005 and 3.909 and 3.827. The “TR-FRET signal at compound concentration 993.601 nM” value in test [3] (raw replicate titration data) is 4.121 and 4.04 and 3.857 and 3.873; in test [3] (raw titration data), 4.121 and 4.04 and 3.857 and 3.873. For the same compound, the “TR-FRET signal at compound concentration 2001.6 nM” value in test [3] (raw replicate titration data) was 4.101 and 3.97 and 3.793 and 3.647; in test [3] (raw titration data) it was 4.101 and 3.97 and 3.793 and 3.647. In addition, in test [5] (Lanthascreen across CDK2/9/12), the “CDK inhibitory selectivity, result in words” value is “more pronounced pan-CDK engagement than CR8”. Further, the “Lanthascreen raw signal, sheet CDK12” value is 0.01164 and 0.009885 in test [5] (compound 1.02544 nM); 0.008674 and 0.009398 in test [5] (compound 3.15521 nM); 0.007398 and 0.008542 in test [5] (compound 9.46563 nM); 0.006709 and 0.008514 in test [5] (compound 31.5521 nM); 0.005942 and 0.005764 in test [5] (compound 99.3891 nM); 0.005543 and 0.005183 in test [5] (compound 315.521 nM). In addition, the “Lanthascreen raw signal, sheet CDK12” value in test [5] (compound 3155.21 nM) is 0.004896 and 0.004614; in test [5] (compound 10002 nM), 0.00468 and 0.003424. For the same compound, the Toxicity rescue in test [1] stood at 30%. In addition, the “Lanthascreen signal, sheet CDK2” value in test [6] (Compound 1.02544 nM) was 0.009698 and 0.009238; in test [6] (Compound 3.15521 nM), 0.009437 and 0.009539; in test [6] (Compound 9.46563 nM), 0.008356 and 0.007045; in test [6] (Compound 31.5521 nM), 0.006783 and 0.006389; in test [6] (Compound 99.3891 nM), 0.003942 and 0.005883; in test [6] (Compound 315.521 nM), 0.002917 and 0.004435. For the same compound, the “Lanthascreen signal, sheet CDK2” value in test [6] (Compound 3155.21 nM) is 0.002797 and 0.003541; in test [6] (Compound 10002 nM), 0.002382 and 0.002785.
